Marks after values point to notes of the source that are not given here.
Legend:
[1] = system: BRD pathogens, M. haemolytica and P. multocida; assay: In-vitro MIC model, BRD pathogen screening panel; format: cell-based; conditions: asterisk = at least one BRD bacterial isolate
[2] = system: E. coli; assay: In-vitro MIC model, E. coli
[3] = system: M. haemolytica; assay: In-vitro MIC model, M. haemolytica; format: cell-based
[4] = system: S. aureus; assay: In-vitro MIC model, S. aureus; conditions: S. aureus ATCC 29213
[5] = system: P. multocida 46572; assay: In vivo mouse lung infection challenge model (murine efficacy model); conditions: 20 mg/kg subcutaneous, CD-1 mice, intranasal challenge, to Day 10; approximate (~%), harmonized relative to vehicle and M9
[6] = system: P. multocida; assay: In-vitro MIC model, P. multocida; format: cell-based
[7] = system: IL-1β; assay: Bovine whole blood assay, IL-1β; format: cell-based; conditions: drug concentration giving overstimulation of IL-1β over LPS (cellular toxicity signal)
Method: (§1) (protected from light) for 30 minutes.

[8] = system: TNF-α; assay: Bovine whole blood assay, LPS-induced TNF-α; format: cell-based; conditions: LPS 1 μg/mL
Method: as §1

[9] = M. haemolytica 46571, bovine efficacy challenge strain
[10] = P. multocida 46572, murine efficacy challenge strain

Row | Compound | MIC flag on Ex# (Table C) [1] | MIC ([2]; E. coli ATCC 25922) | MIC ([2]; E. coli W3110) | MIC ([3]; M. haemolytica 12726) | MIC [3, 9] | MIC ([3]; M. haemolytica ATCC 33396) | MIC [4] | MIC [6, 10] | MIC ([6]; P. multocida ATCC 43137) | MIC flag on Ex# (Table A) [1] | also measured
1 | CC[C@H]1OC(=O)[C@H](C)[C@@H](O[C@H]2C[C@@](C)(OC)[C@@H](O)[C@H](C)O2)[C@H](C)[C@@H](O[C@@H]2O[C@H](C)C[C@H]3[C@H]2OC(=Nc2ccc(F)cc2)N3C)[C@](C)(O)C[C@@H](C)CN[C@H](C)[C@@H](O)[C@]1(C)O (mixture of isomers) [Example C-1, (E/Z)-(2R,3S,4R,5R,8R,10R,11R,12S,13S,14R)-2-ethyl-11-(((3aR,4S,6R,7aS)-2-((4-fluorophenyl)imino)-1,6-dimethylhexahydro-2H-pyrano[4,3-d]oxazol-4-yl)oxy)-3,4,10-trihydroxy-13-(((2R,4R,5S, 6S)-5-hydroxy-4-methoxy-4,6-dimethyltetrahydro-2H-pyran-2-yl)oxy)-3,5,8,10,12,14-hexamethyl-1-oxa-6-azacyclopentadecan-15-one] | C-1* (MIC ≤ 64 μg/mL for at least one BRD bacterial isolate) | – | – | – | – | – | – | – | – | – | –
2 | (E/Z)-(2R,3S,4R,5R,8R,10R,11R,12S,13S,14R)-2-ethyl-3,4,10-trihydroxy-13-(((2R,4R,5S,6S)-5-hydroxy-4-methoxy-4,6-dimethyltetrahydro-2H-pyran-2-yl)oxy)-11-(((3aR,4S,6R,7aS)-2-((6-methoxypyridin-3-yl)imino)-1,6-dimethylhexahydro-2H-pyrano[4,3-d]oxazol-4-yl)oxy)-3,5,8,10,12,14-hexamethyl-1-oxa-6-azacyclopentadecan-15-one [Example C-2] | C-2* (MIC ≤ 64 μg/mL for at least one BRD bacterial isolate) | – | – | – | – | – | – | – | – | – | –
3 | CCCNC[C@]1(O)[C@H](C)O[C@@H](O[C@H]2[C@H](C)[C@@H](O[C@@H]3O[C@H](C)C[C@H]4[C@H]3OC(=Nc3ccc(OC)nc3)N4C)[C@](C)(O)C[C@@H](C)CN[C@H](C)[C@@H](O)[C@](C)(O)[C@@H](CC)OC(=O)[C@@H]2C)C[C@@]1(C)OC (mixture of isomers) [Example A-17, (E/Z)-(2R,3S,4R,5R,8R,10R,11R,12S,13S,14R)-2-ethyl-3,4,10-trihydroxy-13-(((2R,4R,5S,6S)-5-hydroxy-4-methoxy-4,6-dimethyl-5-((propylamino)methyl)tetrahydro-2H-pyran-2-yl)oxy)-11-(((3aR,4S,6R,7aS)-2-((6-methoxypyridin-3-yl)imino)-1,6-dimethylhexahydro-2H-pyrano[4,3-d]oxazol-4-yl)oxy)-3,5,8,10,12,14-hexamethyl-1-oxa-6-azacyclopentadecan-15-one] | – | >64 µg/mL | >64 µg/mL | >64 µg/mL | >64 µg/mL | >64 µg/mL | >64 µg/mL | >64 µg/mL | >64 µg/mL | – | % Survival [5]: 37%
4 | CC[C@H]1OC(=O)[C@H](C)[C@@H](O[C@H]2C[C@@](C)(OC)[C@](O)(CN3CCOCC3)[C@H](C)O2)[C@H](C)[C@@H](O[C@@H]2O[C@H](C)C[C@H]3[C@H]2OC(=Nc2ccccc2)N3C)[C@](C)(O)C[C@@H](C)CN[C@H](C)[C@@H](O)[C@]1(C)O (mixture of isomers) [Example B-3, (E/Z)-(2R,3S,4R,5R,8R,10R,11R,12S,13S,14R)-11-(((3aR,4S,6R,7aS)-1,6-dimethyl-2-(phenylimino)hexahydro-2H-pyrano[4,3-d]oxazol-4-yl)oxy)-2-ethyl-3,4,10-trihydroxy-13-(((2R,4R,5S,6S)-5-hydroxy-4-methoxy-4,6-dimethyl-5-(morpholinomethyl)tetrahydro-2H-pyran-2-yl)oxy)-3,5,8,10,12,14-hexamethyl-1-oxa-6-azacyclopentadecan-15-one] | – | >64 µg/mL | >64 µg/mL | >64 µg/mL | >64 µg/mL | >64 µg/mL | >64 µg/mL | >64 µg/mL | >64 µg/mL | – | –
5 | CCCNC[C@]1(O)[C@H](C)O[C@@H](O[C@H]2[C@H](C)[C@@H](O[C@@H]3O[C@H](C)C[C@H]4[C@H]3OC(=NCC(F)(F)F)N4C)[C@](C)(O)C[C@@H](C)CN[C@H](C)[C@@H](O)[C@](C)(O)[C@@H](CC)OC(=O)[C@@H]2C)C[C@@]1(C)OC (mixture of isomers) [Example A-4, (E/Z)-(2R,3S,4R,5R,8R,10R,11R,12S,13S,14R)-11-(((3aR,4S,6R,7aS)-1,6-dimethyl-2-((2,2,2-trifluoroethyl)imino)hexahydro-2H-pyrano[4,3-d]oxazol-4-yl)oxy)-2-ethyl-3,4,10-trihydroxy-13-(((2R,4R,5S,6S)-5-hydroxy-4-methoxy-4,6-dimethyl-5-((propylamino)methyl)tetrahydro-2H-pyran-2-yl)oxy)-3,5,8,10,12,14-hexamethyl-1-oxa-6-azacyclopentadecan-15-one] | – | >64 µg/mL | >64 µg/mL | >64 µg/mL | >64 µg/mL | >64 µg/mL | >64 µg/mL | >64 µg/mL | >64 µg/mL | – | –
6 | CC[C@H]1OC(=O)[C@H](C)[C@@H](O[C@H]2C[C@@](C)(OC)[C@](O)(CNC(C)C)[C@H](C)O2)[C@H](C)[C@@H](O[C@@H]2O[C@H](C)C[C@H]3[C@H]2OC(=Nc2ccc(OC)nc2)N3C)[C@](C)(O)C[C@@H](C)CN[C@H](C)[C@@H](O)[C@]1(C)O (mixture of isomers) [Example A-26, (E/Z)-(2R,3S,4R,5R,8R,10R,11R,12S,13S,14R)-2-ethyl-3,4,10-trihydroxy-13-(((2R,4R,5S,6S)-5-hydroxy-5-((isopropylamino)methyl)-4-methoxy-4,6-dimethyltetrahydro-2H-pyran-2-yl)oxy)-11-(((3aR,4S,6R,7aS)-2-((6-methoxypyridin-3-yl)imino)-1,6-dimethylhexahydro-2H-pyrano[4,3-d]oxazol-4-yl)oxy)-3,5,8,10,12,14-hexamethyl-1-oxa-6-azacyclopentadecan-15-one] | – | – | – | – | – | – | – | – | – | A-26* (an MIC ≤ 64 μg/mL for at least one BRD bacterial isolate) | –
7 | CC[C@H]1OC(=O)[C@H](C)[C@@H](O[C@H]2C[C@@](C)(OC)[C@](O)(CNCCCOC)[C@H](C)O2)[C@H](C)[C@@H](O[C@@H]2O[C@H](C)C[C@H]3[C@H]2OC(=Nc2ccc(OC)nc2)N3C)[C@](C)(O)C[C@@H](C)CN[C@H](C)[C@@H](O)[C@]1(C)O (mixture of isomers) [Example A-27, (E/Z)-(2R,3S,4R,5R,8R,10R,11R,12S,13S,14R)-2-ethyl-3,4,10-trihydroxy-13-(((2R,4R,5S,6S)-5-hydroxy-4-methoxy-5-(((3-methoxypropyl)amino)methyl)-4,6-dimethyltetrahydro-2H-pyran-2-yl)oxy)-11-(((3aR,4S,6R,7aS)-2-((6-methoxypyridin-3-yl)imino)-1,6-dimethylhexahydro-2H-pyrano[4,3-d]oxazol-4-yl)oxy)-3,5,8,10,12,14-hexamethyl-1-oxa-6-azacyclopentadecan-15-one] | – | – | – | – | – | – | – | – | – | A-27* (an MIC ≤ 64 μg/mL for at least one BRD bacterial isolate) | –
8 | CCCNC[C@]1(O)[C@H](C)O[C@@H](O[C@H]2[C@H](C)[C@@H](O[C@@H]3O[C@H](C)C[C@H]4[C@H]3OC(=Nc3ccccc3)N4Cc3ccccc3)[C@](C)(O)C[C@@H](C)CN[C@H](C)[C@@H](O)[C@](C)(O)[C@@H](CC)OC(=O)[C@@H]2C)C[C@@]1(C)OC (mixture of isomers) [Example A-33, (E/Z)-(2R,3S,4R,5R,8R,10R,11R,12S,13S,14R)-11-(((3aR,4S,6R,7aS)-1-benzyl-6-methyl-2-(phenylimino)hexahydro-2H-pyrano[4,3-d]oxazol-4-yl)oxy)-2-ethyl-3,4,10-trihydroxy-13-(((2R,4R,5S,6S)-5-hydroxy-4-methoxy-4,6-dimethyl-5-((propylamino)methyl)tetrahydro-2H-pyran-2-yl)oxy)-3,5,8,10,12,14-hexamethyl-1-oxa-6-azacyclopentadecan-15-one] | – | – | – | – | – | – | – | – | – | A-33* (an MIC ≤ 64 μg/mL for at least one BRD bacterial isolate) | IL-Iβ OS of LPS [7]: 2 µM; IC50 [8]: 8 µM
9 | CC[C@H]1OC(=O)[C@H](C)[C@@H](O[C@H]2C[C@@](C)(OC)[C@@H](O)[C@H](C)O2)[C@H](C)[C@@H](O[C@@H]2O[C@H](C)C[C@H]3[C@H]2OC(=Nc2ccc(OC)cc2)N3C)[C@](C)(O)C[C@@H](C)CN[C@H](C)[C@@H](O)[C@]1(C)O (mixture of isomers) [Example C-3, (E/Z)-(2R,3S,4R,5R,8R,10R,11R,12S,13S,14R)-2-ethyl-3,4,10-trihydroxy-13-(((2R,4R,5S,6S)-5-hydroxy-4-methoxy-4,6-dimethyltetrahydro-2H-pyran-2-yl)oxy)-11-(((3aR,4S,6R,7aS)-2-((4-methoxyphenyl)imino)-1,6-dimethylhexahydro-2H-pyrano[4,3-d]oxazol-4-yl)oxy)-3,5,8,10,12,14-hexamethyl-1-oxa-6-azacyclopentadecan-15-one] | C-3* (MIC ≤ 64 μg/mL for at least one BRD bacterial isolate) | – | – | – | – | – | – | – | – | – | –
10 | CC[C@H]1OC(=O)[C@H](C)[C@@H](O[C@H]2C[C@@](C)(OC)[C@@H](O)[C@H](C)O2)[C@H](C)[C@@H](O[C@@H]2O[C@H](C)C[C@H]3[C@H]2OC(=Nc2ccccc2)N3C)[C@](C)(O)C[C@@H](C)CN[C@H](C)[C@@H](O)[C@]1(C)O (mixture of isomers) [Example C-4, (E/Z)-(2R,3S,4R,5R,8R,10R,11R,12S,13S,14R)-11-(((3aR,4S,6R,7aS)-1,6-dimethyl-2-(phenylimino)hexahydro-2H-pyrano[4,3-d]oxazol-4-yl)oxy)-2-ethyl-3,4,10-trihydroxy-13-(((2R,4R,5S,6S)-5-hydroxy-4-methoxy-4,6-dimethyltetrahydro-2H-pyran-2-yl)oxy)-3,5,8,10,12,14-hexamethyl-1-oxa-6-azacyclopentadecan-15-one] | C-4* (MIC ≤ 64 μg/mL for at least one BRD bacterial isolate) | – | – | – | – | – | – | – | – | – | –
